# Where a name gives a salt, the structure may show the parent alone. Read-outs that look alike come from different tables or passages of the source.
# Assays:
# NB-4 = test: Cytotoxicity assay (CellTiterGlo, 72 hours treatment), NB-4; type: cell-based, Human; conditions: NB-4 acute myeloid leukemia cells, ATP determination, read-out: Cell line IC50 NB-4
# Method: (§1) Cell Lines and Cell Cultures
# (§2) All cell lines were seeded at a density ranging from 2,400 to 8,000 cells/well in 384-well cell culture microplates and incubated at […] in a humidified 5% […] atmosphere 24 hours before treatment. Compound solutions were directly administered to the cells using the D300e digital dispenser (Tecan) to obtain scalar final concentrations ranging from 5 nM to 10 μM (duplicate wells for each point), with 80 uL final volume per well. The final DMSO concentration in test wells was adjusted to 0.1% (v/v); control wells were mock-treated and contained the same final concentration of DMSO.
# (§3) Cell viability was determined after 72 hours treatment by ATP determination in each test well with a luciferase-based detection system (CellTiterGlo, Promega, Madison, WI, USA), following manufacturer's instructions. The intensity of emitted light was measured using an EnVision reader (PerkinElmer, Waltham, MA USA) and expressed as RLU. One to three independent experiments were performed for each cell line, as indicated.
# (§4) Analysis of Antiproliferative Data
# (§5) Cell growth inhibitory activity was evaluated comparing treated versus control data using the Assay Explorer software suite (Symix Technologies Inc.). IC50s values were calculated by sigmoidal fitting interpolation using the following quadriparametric Hill equation: […]
# (§6) The Top, Bottom and Hill slope parameters were left free to assume any value, but only curves whose Hill slope had values between 0.5 and 4 were arbitrarily considered acceptable and used to calculate the average IC50s. Curves too steep (HillSlope≥4) or too slight (HillSlope≤0.5) were not included (Table C).
# CDK11A = target: T1, CDK11A (Homo sapiens, UniProt Q9UQ88); conditions: displacement of SNS-032-Atto590 probe (0.002 μM) from CDK11A-p58 (0.032 uM), fluorescence polarization;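 further: compound preincubated 30 min with CDK11A-p58, then probe added and polarization (mP) read 15 min later, 0% displacement is probe plus enzyme, 100% is probe alone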
# T1 sequence (Q9UQ88 346-783): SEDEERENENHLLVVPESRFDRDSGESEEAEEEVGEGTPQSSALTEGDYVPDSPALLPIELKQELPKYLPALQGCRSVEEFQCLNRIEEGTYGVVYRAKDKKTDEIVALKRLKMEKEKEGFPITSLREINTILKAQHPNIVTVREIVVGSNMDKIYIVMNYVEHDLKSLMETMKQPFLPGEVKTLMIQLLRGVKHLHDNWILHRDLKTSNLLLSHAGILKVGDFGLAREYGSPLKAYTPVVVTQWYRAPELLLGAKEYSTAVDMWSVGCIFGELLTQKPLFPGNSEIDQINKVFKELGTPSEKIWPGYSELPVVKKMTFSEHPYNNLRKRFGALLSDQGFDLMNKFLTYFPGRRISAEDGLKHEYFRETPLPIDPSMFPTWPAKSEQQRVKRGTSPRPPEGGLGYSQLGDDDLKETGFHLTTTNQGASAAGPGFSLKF
# Method: Biochemical Kinase Inhibition Assay on CDK11 in Displacement Assay Format
# Displacement Assay Format
# Fluorescence Polarization (FP) experiments were carried out at room temperature using no-binding black 384-well microplates (Corning, NY), in 50 mM Tris HCl, pH 8, 10 mM MgCl2, 1 mM DTT, 1 mM CHAPS in a final volume of 60 μl. The plate reader was the Pherastar microplate reader (BMG). Polarization values were read using excitation and emission wavelengths of 590 and 675 nm, respectively. All FP values are expressed as mP units.
# Compounds were 4-folds serially diluted in 100% DMSO and added directly to the CDK11A-p58 solution using the pin tool (V & P Scientific): 0.2 ul of the different compound concentrations in 20 ul of enzyme solution. After an incubation of 30 minutes at r.t., 40 ul of probe solution were added. […] The Pherastar reading is performed after 15 minutes of all components incubation. For each assay, high controls (equivalent to 0% displacement) contain probe, CDK11A-p58, and 0.33% DMSO, whereas low controls (equivalent to 100% displacement) contain only probe and 0.33% DMSO. Controls are used for the Z′ and signal to background evaluation.
# The data per each molecule are analyzed by Prism SW or an internally customized version of the SW package “Assay Explorer” which provides sigmoidal fittings of the ten-dilution curves for DC50 determination using a 4 parameters logistic equation:
# where x is the logarithm of the inhibitor concentration, y is the response; y starts at bottom and goes to top with a sigmoid shape.
# EoL-1-cell = test: Cytotoxicity assay (CellTiterGlo, 72 hours treatment), EoL-1; type: cell-based, Human; conditions: ATP determination, read-out: Cell line IC50 EoL-1-cell
# Method: as §1, §2, §3, §4, §5, §6
# MOLM-13 = test: Cytotoxicity assay (CellTiterGlo, 72 hours treatment), MOLM-13; type: cell-based, Human; conditions: MOLM-13 acute myeloid leukemia cells, ATP determination, read-out: Cell line IC50 MOLM-13
# Method: as §1, §2, §3, §4, §5, §6
# [1] = Homo sapiens, EOL1, 72 h, EoL-1 acute myeloid leukemia cells
Compound,"IC50 (NB-4; Homo sapiens, NB-4, 72 h)",DC50 (CDK11A),IC50 (EoL-1-cell; [1]),"IC50 (MOLM-13; Homo sapiens, MOLM-13, 72 h)",other results
"O=C(Nc1n[nH]c2ccc(-c3c(Cl)cccc3Cl)cc12)[C@@H]1CCCNC1 [compound 169, (3R)-N-[5-(2,6-Dichlorophenyl)-1H-indazol-3-yl]piperidine-3-carboxamide hydrochloride]",0.317 µM,0.021 µM,0.281 µM,0.219 µM,
"N#Cc1ccc(Cl)c(-c2ccc3[nH]nc(NC(=O)[C@@H]4CCC5(CCCC5)NC4)c3c2)c1 (single isomer, unassigned) [compound 204, (8+)-N-[5-(2-Chloro-5-cyanophenyl)-1H-indazol-3-yl]-6-azaspiro[4.5]decane-8-carboxamide hydrochloride]",0.211 µM,0.03 µM,0.237 µM,0.194 µM,
"N#Cc1ccc(Cl)c(-c2ccc3[nH]nc(NC(=O)C4CCC5(CCCC5)NC4)c3c2)c1 (stereo not drawn) [compound 185, N-[5-(2-Chloro-5-cyanophenyl)-1H-indazol-3-yl]-6-azaspiro[4.5]decane-8-carboxamide hydrochloride]",0.204 µM,0.021 µM,0.294 µM,0.261 µM,
"N#Cc1ccc(Cl)c(-c2ccc3[nH]nc(NC(=O)[C@@H]4CCNC4)c3c2)c1 [compound 176, (3R)-N-[5-(2-Chloro-5-cyanophenyl)-1H-indazol-3-yl]pyrrolidine-3-carboxamide hydrochloride]",0.384 µM,0.018 µM,0.425 µM,0.505 µM,
"CCNC1CC(C(=O)Nc2n[nH]c3ccc(-c4cc(C#N)ccc4Cl)cc23)C1 (stereo not drawn) [compound 152, N-[5-(2-Chloro-5-cyanophenyl)-1H-indazol-3-yl]-3-(ethylamino)cyclobutanecarboxamide hydrochloride]",0.226 µM,0.031 µM,0.191 µM,0.203 µM,
"O=C(Nc1n[nH]c2ccc(-c3cc([N+](=O)[O-])ccc3Cl)cc12)[C@@H]1CCCNC1 [cpd 26, (3R)-N-[5-(2-Chloro-5-nitrophenyl)-1H-indazol-3-yl]piperidine-3-carboxamide hydrochloride]",,0.023 µM,,,"IC50 (NB-4; Homo sapiens): 0.141 µM; IC50 (EoL-1-cell; Homo sapiens, EOL1, EoL-1 acute myeloid leukemia cells): 0.126 µM; IC50 (MOLM-13; Homo sapiens): 0.154 µM"
"CC1(C)CCC(C(=O)Nc2n[nH]c3ccc(-c4cc(C#N)ccc4Cl)cc23)CN1 (single isomer, unassigned; (+)) [compound 202, (+)-N-[5-(2-Chloro-5-cyanophenyl)-1H-indazol-3-yl]-6,6-dimethylpiperidine-3-carboxamide]",,0.015 µM,,,IC50 (NB-4): 0.056 µM; IC50 (EoL-1-cell; EoL-1 acute myeloid leukemia cells): 0.073 µM; IC50 (MOLM-13): 0.077 µM
"CC(=O)c1ccc(Cl)c(-c2ccc3[nH]nc(NC(=O)[C@@H]4CCCNC4)c3c2)c1 [cpd 33, (3R)-N-[5-(5-Acetyl-2-chlorophenyl)-1H-indazol-3-yl]piperidine-3-carboxamide hydrochloride]",1.56 µM,0.019 µM,1.38 µM,1.35 µM,
"O=C(Nc1n[nH]c2ccc(-c3c(Cl)cccc3Cl)cc12)C1CCCNC1 (stereo not drawn) [compound 157, N-[5-(2,6-Dichlorophenyl)-1H-indazol-3-yl]piperidine-3-carboxamide hydrochloride]",0.512 µM,0.059 µM,0.59 µM,0.521 µM,
"N#Cc1ccc(Cl)c(-c2ccc3[nH]nc(NC(=O)[C@@H]4CCC5(CCCCC5)NC4)c3c2)c1 (single isomer, unassigned) [compound 206, (3+)-N-[5-(2-Chloro-5-cyanophenyl)-1H-indazol-3-yl]-1-azaspiro[5.5]undecane-3-carboxamide]",0.205 µM,0.023 µM,0.18 µM,0.194 µM,
"CC1(C)CCC(C(=O)Nc2n[nH]c3ccc(-c4cc(C#N)ccc4Cl)cc23)CN1 (stereo not drawn) [compound 184, N-[5-(2-Chloro-5-cyanophenyl)-1H-indazol-3-yl]-6,6-dimethylpiperidine-3-carboxamide hydrochloride]",0.151 µM,0.029 µM,0.16 µM,0.164 µM,
"Cc1ccc(F)c(-c2ccc3[nH]nc(NC(=O)[C@@H]4CCCNC4)c3c2)c1 [cpd 32, (3R)-N-[5-(2-Fluoro-5-methylphenyl)-1H-indazol-3-yl]piperidine-3-carboxamide hydrochloride]",2.48 µM,0.023 µM,2.04 µM,1.51 µM,
"N#Cc1ccc(Cl)c(-c2ccc3[nH]nc(NC(=O)C4CCCNC4)c3c2)c1 (stereo not drawn) [compound 171, N-[5-(2-Chloro-5-cyanophenyl)-1H-indazol-3-yl]piperidine-3-carboxamide hydrochloride]",0.416 µM,0.028 µM,0.332 µM,0.52 µM,
"CN(C)C1CCC(C(=O)Nc2n[nH]c3ccc(-c4c(Cl)cccc4Cl)cc23)CC1 (stereo not drawn) [compound 166, N-[5-(2,6-Dichlorophenyl)-1H-indazol-3-yl]-4-(dimethylamino)cyclohexanecarboxamide hydrochloride]",,0.133 µM,,,
"Cc1ccc(-c2ccc3[nH]nc(NC(=O)C4CCN(C)CC4)c3c2)c(F)c1 [cpd 119, N-[5-(2-Fluoro-4-methylphenyl)-1H-indazol-3-yl]-1-methylpiperidine-4-carboxamide hydrochloride]",,0.665 µM,,,
"N#Cc1ccc(Cl)c(-c2ccc3[nH]nc(NC(=O)[C@H]4CCC5(CCCC5)NC4)c3c2)c1 (single isomer, unassigned) [compound 205, (8-)-N-[5-(2-Chloro-5-cyanophenyl)-1H-indazol-3-yl]-6-azaspiro[4.5]decane-8-carboxamide hydrochloride]",,0.278 µM,,,
"O=C(Nc1n[nH]c2ccc(-c3ccc(F)cc3F)cc12)[C@@H]1CCCNC1 [cpd 30, (3R)-N-[5-(2,4-Difluorophenyl)-1H-indazol-3-yl]piperidine-3-carboxamide hydrochloride]",,0.038 µM,,,
"CN1CCC(C(=O)Nc2n[nH]c3ccc(-c4c(F)cccc4Cl)cc23)CC1 [cpd 64, N-[5-(2-Chloro-6-fluorophenyl)-1H-indazol-3-yl]-1-methylpiperidine-4-carboxamide hydrochloride]",,0.066 µM,,,
"O=C(Nc1n[nH]c2ccc(-c3ccccc3)cc12)[C@@H]1CCCNC1 [cpd 49, (3R)-N-(5-Phenyl-1H-indazol-3-yl)piperidine-3-carboxamide hydrochloride]",,0.078 µM,,,
"Nc1ccc(-c2ccc3[nH]nc(NC(=O)C4CCCNC4)c3c2)c(Cl)c1 (stereo not drawn) [cpd 1, N-[5-(4-Amino-2-chlorophenyl)-1H-indazol-3-yl]piperidine-3-carboxamide dihydrochloride]",,0.049 µM,,,
"O=C1CCC(C(=O)Nc2n[nH]c3ccc(-c4c(Cl)cccc4Cl)cc23)CN1 (stereo not drawn) [cpd 27, N-[5-(2,6-Dichlorophenyl)-1H-indazol-3-yl]-6-oxopiperidine-3-carboxamide]",,0.338 µM,,,
"CN1CCC(C(=O)Nc2n[nH]c3ccc(-c4cc(C(N)=O)ccc4Cl)cc23)CC1 [cpd 117, N-[5-(5-Carbamoyl-2-chlorophenyl)-1H-indazol-3-yl]-1-methylpiperidine-4-carboxamide trifluoroacetate]",,0.153 µM,,,
"CN1CCC(C(=O)Nc2n[nH]c3ccc(-c4ccc(C=O)cc4F)cc23)CC1 [cpd 118, N-[5-(2-Fluoro-4-formylphenyl)-1H-indazol-3-yl]-1-methylpiperidine-4-carboxamide hydrochloride]",,0.467 µM,,,
"O=C(Nc1n[nH]c2ccc(-c3c(F)cccc3Cl)cc12)[C@H]1CCCNC1 [compound 173, (3S)-N-[5-(2-Chloro-6-fluorophenyl)-1H-indazol-3-yl]piperidine-3-carboxamide hydrochloride]",,0.391 µM,,,

# From US20250206724A1, “SUBSTITUTED 3-AMINO INDAZOLE DERIVATIVES AS KINASE INHIBITORS” (NERVIANO MEDICAL SCIENCES S.R.L., priority 2022, published 2025)
